Results from publication PMC6917776, “Discovery of a chemical probe for PRDM9” (Nature Communications, 2019).
Like-named read-outs stand apart in the source and are kept apart here.

Test: CelltiterGlo viability cell assay
Format: cell-based
Conditions: human
Method in brief: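 Luminescent ATP-based viability (CelltiterGlo) was measured after 3 or 6 days of treatment at increasing concentrations from 0.01 μM up to 30 μM, with values expressed relative to DMSO-treated cells.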

[1] = CAL851 breast cancer cells, CAL851, 3 day, read-out: viability Average
[2] = CAL851 breast cancer cells, CAL851, 3 day, read-out: viability Replicate 1
[3] = CAL851 breast cancer cells, CAL851, 3 day, read-out: viability Replicate 2
[4] = CAL851 breast cancer cells, CAL851, 3 day, read-out: viability Replicate 3
[5] = CAL851 breast cancer cells, CAL851, 6 day, read-out: viability Average
[6] = CAL851 breast cancer cells, CAL851, 6 day, read-out: viability Replicate 1
[7] = CAL851 breast cancer cells, CAL851, 6 day, read-out: viability Replicate 2
[8] = CAL851 breast cancer cells, CAL851, 6 day, read-out: viability Replicate 3
[9] = CAL851 cells, CAL851, 3 day, read-out: viability Replicate 1
[10] = CAL851 cells, CAL851, 3 day, read-out: viability Replicate 2
[11] = HCC1143 breast cancer cells, HCC1143, 3 day, read-out: viability Average
[12] = HCC1143 breast cancer cells, HCC1143, 3 day, read-out: viability Replicate 1
[13] = HCC1143 breast cancer cells, HCC1143, 3 day, read-out: viability Replicate 2
[14] = HCC1143 breast cancer cells, HCC1143, 3 day, read-out: viability Replicate 3

Compound: COc1cc(OC)cc(-c2noc(N3CCN(C)C4(CCN(c5ccnc(C)c5)CC4)C3)n2)c1 [MRK-740]
- viability at 3 day, 0.01 µM [1]: 95.7%
- viability at 3 day, 0.01 µM [2]: 91.6%
- viability at 3 day, 0.01 µM [3]: 94.6%
- viability at 3 day, 0.01 µM [4]: 101%
- viability at 3 day, 0.03 µM [1]: 94.4%
- viability at 3 day, 0.03 µM [2]: 93.2%
- viability at 3 day, 0.03 µM [3]: 92.2%
- viability at 3 day, 0.03 µM [4]: 97.9%
- viability at 3 day, 0.3 µM [1]: 98.9%
- viability at 3 day, 0.3 µM [4]: 104%
- viability at 3 day, 1 µM [1]: 98%
- viability at 3 day, 1 µM [2]: 88.2%
- viability at 3 day, 1 µM [3]: 93.7%
- viability at 3 day, 1 µM [4]: 112%
- viability at 3 day, 3 µM [1]: 88%
- viability at 3 day, 3 µM [2]: 88.9%
- viability at 3 day, 3 µM [3]: 78.6%
- viability at 3 day, 3 µM [4]: 96.5%
- viability at 3 day, 9.5 µM [1]: 72%
- viability at 3 day, 9.5 µM [2]: 69.7%
- viability at 3 day, 9.5 µM [3]: 68.9%
- viability at 3 day, 9.5 µM [4]: 77.4%
- viability at 3 day, 30 µM [1]: 21.2%
- viability at 3 day, 30 µM [2]: 18.4%
- viability at 3 day, 30 µM [3]: 24.5%
- viability at 3 day, 30 µM [4]: 20.7%
- viability at 6 day, 0.01 µM [5]: 113%
- viability at 6 day, 0.01 µM [6]: 109%
- viability at 6 day, 0.01 µM [7]: 118%
- viability at 6 day, 0.01 µM [8]: 113%
- viability at 6 day, 0.03 µM [5]: 114%
- viability at 6 day, 0.03 µM [6]: 103%
- viability at 6 day, 0.03 µM [7]: 114%
- viability at 6 day, 0.03 µM [8]: 126%
- viability at 6 day, 0.1 µM [5]: 129%
- viability at 6 day, 0.1 µM [6]: 116%
- viability at 6 day, 0.1 µM [7]: 126%
- viability at 6 day, 0.1 µM [8]: 145%
- viability at 6 day, 0.3 µM [5]: 118%
- viability at 6 day, 0.3 µM [6]: 121%
- viability at 6 day, 0.3 µM [7]: 117%
- viability at 6 day, 0.3 µM [8]: 115%
- viability at 6 day, 1 µM [5]: 117%
- viability at 6 day, 1 µM [6]: 109%
- viability at 6 day, 1 µM [7]: 108%
- viability at 6 day, 1 µM [8]: 134%
- viability at 6 day, 3 µM [5]: 100%
- viability at 6 day, 3 µM [6]: 93.2%
- viability at 6 day, 3 µM [7]: 104%
- viability at 6 day, 3 µM [8]: 104%
- viability at 6 day, 9.5 µM [5]: 73.1%
- viability at 6 day, 9.5 µM [6]: 59.9%
- viability at 6 day, 9.5 µM [7]: 75.6%
- viability at 6 day, 9.5 µM [8]: 83.9%
- viability at 6 day, 30 µM [5]: 14.9%
- viability at 6 day, 30 µM [6]: 22.8%
- viability at 6 day, 30 µM [7]: 11.9%
- viability at 6 day, 30 µM [8]: 10%
- viability at 3 day, 0.1 µM (CAL851 cells, CAL851, 3 day, read-out: viability Average): 99.9%
- viability at 3 day, 0.1 µM [9]: 97.5%
- viability at 3 day, 0.1 µM [10]: 91.8%
- viability at 3 day, 0.1 µM (CAL851 cells, CAL851, 3 day, read-out: viability Replicate 3): 111%
- viability at 3 day, 0.3 µM [9]: 94.7%
- viability at 3 day, 0.3 µM [10]: 97.8%
- viability at 3 day, 0.01 µM [11]: 96.2%
- viability at 3 day, 0.01 µM [12]: 100%
- viability at 3 day, 0.01 µM [13]: 94.8%
- viability at 3 day, 0.01 µM [14]: 93.8%
- viability at 3 day, 0.03 µM [11]: 94.8%
- viability at 3 day, 0.03 µM [12]: 92.9%
- viability at 3 day, 0.03 µM [13]: 94.1%
- viability at 3 day, 0.03 µM [14]: 97.3%
- viability at 3 day, 0.3 µM [11]: 98.1%
- viability at 3 day, 0.3 µM [12]: 99.7%
- viability at 3 day, 0.3 µM [13]: 97.7%
- viability at 3 day, 0.3 µM [14]: 96.9%
- viability at 3 day, 1 µM [11]: 97.8%
- viability at 3 day, 1 µM [12]: 101%
- viability at 3 day, 1 µM [13]: 93.9%
- viability at 3 day, 1 µM [14]: 98.8%
- viability at 3 day, 3 µM [11]: 92.9%
- viability at 3 day, 3 µM [12]: 94.7%
- viability at 3 day, 3 µM [13]: 91%
- viability at 3 day, 3 µM [14]: 93%
- viability at 3 day, 9.5 µM [11]: 71.7%
- viability at 3 day, 9.5 µM [12]: 73.8%
- viability at 3 day, 9.5 µM [13]: 69.4%
- viability at 3 day, 9.5 µM [14]: 72%
- viability at 3 day, 30 µM [11]: 25.7%
- viability at 3 day, 30 µM [12]: 27.4%
- viability at 3 day, 30 µM [13]: 27.1%
- viability at 3 day, 30 µM [14]: 22.6%
- viability at 6 day, 0.03 µM (HCC1143 breast cancer cells, HCC1143, 6 day, read-out: viability Average): 101%
- viability at 6 day, 0.03 µM (HCC1143 breast cancer cells, HCC1143, 6 day, read-out: viability Replicate 1): 96.8%
- viability at 6 day, 0.03 µM (HCC1143 breast cancer cells, HCC1143, 6 day, read-out: viability Replicate 2): 101%
